Columns and labels:
collagen IV [1] = experiment: Amount of collagen IV in normal human keratinocyte culture (ELISA), soya saponins with beta-ecdysone, 48 h; format: cell-based; conditions: beta-ecdysone alone, same experiment
Description: (§1) The cultures of normal human keratinocytes (NHK) are grown from a surgical specimen of healthy skin. In the present study, the tests were carried out on a strain of cells, denoted by HK 44, originating from a facelift performed on a person.
The keratinocytes are cultured in K-SFM growth medium, which is a complete specific keratinocyte culture medium (SFM=serum free medium) complemented with EGF (epidermal growth factor) and pituitary extract, said medium being marketed by Gibco, France. The cells were subcultured once from the primary culture in one passage, denoted by P1.
The cells are inoculated in 96-well culture plates at a rate of 25,000 NHK per well in K-SFM. After 24 h of incubation, which is necessary for good adhesion of the cells, the inoculation medium is withdrawn and replaced with K-SFM diluted 50-fold in the same base medium, but devoid of EGF and pituitary extract. […]
The controls will receive the same amount of DMSO solvent as for the product tested at a final concentration of 0.1%.
The culture supernatants are recovered for carrying out an ELISA, as explained below.
The protocol for assaying the collagen IV by an ELISA method is adapted from that described by DUMAS M. et al. in Mechanisms of Ageing and Development, 1994, 73, pages 179-187. […]
(§2) The activity A of the product is expressed as a percentage and corresponds to the following formula: [formula] […]

collagen IV [2] = experiment: Amount of collagen IV in normal human keratinocyte culture (ELISA), soya seed saponins, 72 h; format: cell-based; conditions: 10 ng/ml
Description: A soya seed extract commercially available under the reference SOY SELECT LOT 26040/2 from the Italian company Indena is used in this Example.
According to the marketing information, this extract contains saponins of the “soya saponin” category in a proportion of 29 to 30% by dry weight, with a predominance of group B soya sapogenols.
To validate the pertinence of the chosen experimental protocol, a series of these tests was carried out with a positive control, namely transforming growth factor beta (TGF-beta), which is known to increase the amount of collagen IV in a culture of human keratinocytes. Reference may be made to the article by Köning A. and Bruckner-Tuderman L., J. Cell. Biol., May 1992, 117(3), 679-85.
as §1
The keratinocytes are cultured in K-SFM growth medium, which is a complete specific keratinocyte culture medium (SFM=serum free medium) complemented with EGF (epidermal growth factor) and pituitary extract, said medium being marketed by Gibco, France. […]
as §2

Compound	increase in the amount of collagen IV (collagen IV [1])	Q (ng collagen IV/100 μg proteins; at 72 h) (collagen IV [2]; NHK strain HK 44)	A (%) (collagen IV [2]; vs DMSO control)
CC(C)(O)CC[C@@H](O)[C@](C)(O)[C@H]1CC[C@@]2(O)C3=CC(=O)[C@@H]4C[C@@H](O)[C@@H](O)C[C@]4(C)[C@H]3CC[C@]12C [beta-ecdysone]	No increase	–	–
transforming growth factor beta [TGF-beta]	–	5.615 ± 0.595 ng collagen IV/100 μg proteins	+50%

Source: patent US6641848B1, “Saponin or sapogenol compositions for increasing collagen IV synthesis” (Parfums Christian Dior, priority 1998, dated 2003)
